Source: article PMC12297138, “Screening and Identification of Multiple Peptides Homologous to the Fusion Glycoprotein Gc of Schmallenberg Virus Able to Inhibit Viral Infection” (Transboundary and Emerging Diseases, 2025)

Tests used:
[1] = tested on: Schmallenberg virus (SBV); experiment: Cotreatment assay (plaque reduction); assay type: cell-based; conditions: for percentage of viral inhibition at 100 μM (library screening): cotreatment, peptide 100 μM, SBV on BHK-21 cells, threshold 50% inhibition; for IC50: peptide + SBV (MOI 0.01) together on BHK-21 cells 2 h 37°C, plaques after 72 h, triplicate; for SI, Cotreatment: selectivity index CC50 value/IC50 value
Excerpt: Baby Hamster Kidney cells (BHK-21) (ATCC CCL-10, Manassas, VA, USA), Madin–Darby bovine kidney (MDBK, ATCC CCL-22), and Vero/hSLAM cells (ECACC 04091501, Porton Down, United Kingdom) were cultivated in Dulbecco's modified Eagle's medium (DMEM, Microtech, Naples, Italy) supplemented with 10% fetal bovine serum (FBS) (Microtech). Viruses were kindly provided by Professor Giuseppe Iovane (University Federico II, Naples, Italy). Cells were infected with a multiplicity of infection (MOI) of 0.01, and we assessed viral titers through plaque assays.
SBV titration was performed on BHK-21 cells. Briefly, BHK-21 cell monolayers in 12-well cell culture plates were infected with SBV dilutions. After 1 h of incubation, viral inocula were removed and a mixture of DMEM 10% FBS and 3% carboxymethyl cellulose (CMC) was added to all wells. After incubation for 72 h, cells were fixed with 4% formaldehyde solution and stained with 0,5% crystal violet (Sigma-Aldrich, St. Louis, MO, USA). Plaques were scored and stock virus titration was calculated as plaque forming unit (PFU)/ml.
Peptides were dissolved in water. To assess the impact of these peptides on inhibiting SBV infectivity, a very general assay (cotreatment) was performed by treating cells (5 × 10^5 cells/well) with peptides at 200, 100, 50, 25, 12.5, 6.25, and 1 μM and incubating them with the viral inoculum (MOI of 0.01) for 2 h at 37°C. To effectively inactivate nonpenetrated viruses, we treated cells with citrate buffer (pH 3.0) and then cultured BHK-21 for 72 h at 37°C/5% CO2 in DMEM enriched with 10% FBS and CMC. The monolayers were finally fixed and stained, and the plaque number was scored. The percentage of inhibition was calculated in comparison to the control group (cell infected and treated with no peptide).

[2] = tested on: Schmallenberg virus (SBV); experiment: Virus pretreatment assay (plaque reduction); assay type: cell-based; conditions: for IC50: peptide + SBV (MOI 0.1) 1 h 37°C, then diluted on BHK-21 cells (final MOI 0.01), plaques after 72 h; for SI, Virus pretreatment: selectivity index CC50 value/IC50 value
Procedure: (§1) Peptide concentrations are the same as used in the initial cotreatment assay. Virus pretreatment assay: peptides were added to the virus (MOI of 0.1) for 1 h at 37°C. Following the incubation period, the mixture of virus and peptide was diluted on cells for 2 h: this process allowed the peptides to achieve a nonactive concentration while ensuring that the virus remained at an optimal final MOI of 0.01. Then, the cells underwent a 72-h incubation with CMC. Cell pretreatment: Precooled cells were treated with the peptides for 1 h, followed by the incubation of the viral inoculum (MOI of 0.01) for 2 hr at 37°C. At the end, cells were overlaid with CMC for 72 hr at 37°C. Posttreatment: Cells were treated with peptide following the viral infection (MOI of 0.01 pfu/mL) for 2 h at 37°C; then, CMC was added for 72 h at 37°C. For each treatment, the IC50, which is the peptide concentration resulting in a 50% reduction of SBV infectivity, was calculated.

[3] = tested on: Schmallenberg virus (SBV); experiment: Attachment assay (temperature shift); assay type: cell-based; conditions: for IC50: BHK-21 cells, SBV MOI 0.01 and peptide simultaneously 2 h at 4°C, plaques after 72 h at 37°C; for SI, Attachment: selectivity index CC50 value/IC50 value
Procedure: (§2) Two additional assays were performed. Peptide concentrations are the same as those used in the other treatments. Attachment assay: Cells were infected with the virus (MOI 0.01) and simultaneously each peptide was inoculated for 2 h at 4°C; then, cells were left in CMC for 72 h at 37°C. Entry assay: BHK-21 monolayer was infected with SBV (MOI 0.01) for 2 h at 4°C, followed by the treatment with each peptide for 1 h at 37°C; finally, CMC was added on cells. Similarly to other assays, at the end, viral plaques were observed.

[4] = tested on: Schmallenberg virus (SBV); experiment: Entry assay (temperature shift); assay type: cell-based; conditions: for IC50: BHK-21 infected with SBV MOI 0.01 2 h at 4°C, then peptide 1 h at 37°C, plaque count; for SI, Entry: selectivity index CC50 value/IC50 value
Procedure: as §2

[5] = tested on: Schmallenberg virus (SBV); experiment: Cell pretreatment assay (plaque reduction); assay type: cell-based; conditions: precooled BHK-21 cells treated with peptide 1 h, then SBV MOI 0.01 for 2 h 37°C; plaques after 72 h
Procedure: as §1

[6] = tested on: Schmallenberg virus (SBV); experiment: Posttreatment assay (plaque reduction); assay type: cell-based; conditions: BHK-21 cells treated with peptide after SBV infection (MOI 0.01, 2 h 37°C); plaques after 72 h
Procedure: as §1

BHK-21 cells = experiment: MTT cytotoxicity assay; assay type: cell-based, Hamster; conditions: 24 h treatment, peptides 1-200 µM, read at 570 nm, triplicate
Procedure: Peptide cytotoxicity was measured by 3- (4, 5-dimethylthiazol-2-yl)-2, 5-diphenyltetrazolium bromide (MTT) assay according to manufacturer's instructions (Sigma-Aldrich, St. Louis, Missouri, United States). BHK-21 cells (4 × 10^4 cells/well) were treated with peptides at different concentrations ranging from 1 µM to 200 and, after 24 h, 100 μL of the MTT solution (5 mg/mL) was incubated for 3 h at 37°C. Then, we used DMSO (Sigma Aldrich) to dissolve tetrazolium salts under agitation. Cytotoxicity was analyzed at 570 nm, and cell viability was measured against control cells—those that received no treatment. At the end, the 50% cytotoxic concentration (CC50) was determined using GraphPad Prism software (GraphPad Software, San Diego, CA, USA).

Compound | percentage of viral inhibition at 100 μM (library screening) [1] | IC50 [1] [µM] | IC50 [2] [µM] | IC50 [3] [µM] | IC50 [4] [µM] | SI, Cotreatment [1] | IC50 [5] [µM] | SI, Virus pretreatment [2] | SI, Attachment [3] | SI, Entry [4] | IC50 [6] [µM] | CC50 (BHK-21 cells) [µM]
CC[C@H](C)[C@H](NC(=O)[C@H](CC(=O)O)NC(=O)[C@H](CO)NC(=O)[C@H](CCC(N)=O)NC(=O)[C@H](CC(C)C)NC(=O)[C@H](C)NC(=O)[C@H](C)NC(=O)[C@@H](NC(=O)[C@H](Cc1ccc(O)cc1)NC(=O)[C@H](CC(N)=O)NC(=O)[C@H](CCC(=O)O)NC(=O)[C@@H](NC(=O)[C@H](CC(=O)O)NC(=O)[C@@H]1CCCN1C(=O)[C@H](Cc1c[nH]cn1)NC(=O)[C@@H](N)CC(N)=O)[C@@H](C)CC)[C@@H](C)CC)C(=O)N[C@@H](C)C(=O)N[C@@H](CC(N)=O)C(=O)N[C@@H](CC(=O)O)C(=O)N[C@@H](CC(C)C)C(=O)N[C@H](C(=O)N[C@@H](CCSC)C(=O)N[C@@H](Cc1c[nH]cn1)C(=O)N[C@@H](Cc1ccc(O)cc1)C(=O)N[C@@H](Cc1ccccc1)C(=O)O)[C@@H](C)O [Gc30] | greater than 50% | 12.5 | 20 | 50 | 20 |  |  |  |  |  |  | 
CC[C@H](C)[C@H](NC(=O)[C@@H](NC(=O)[C@H](CC(=O)O)NC(=O)[C@H](CCCCN)NC(=O)[C@H](CCCNC(=N)N)NC(=O)[C@H](CC(N)=O)NC(=O)[C@@H](N)Cc1ccccc1)C(C)C)C(=O)N[C@@H](CC(C)C)C(=O)N[C@@H](CCCNC(=N)N)C(=O)N[C@@H](CCCNC(=N)N)C(=O)N[C@@H](CS)C(=O)N[C@@H](Cc1ccccc1)C(=O)N[C@@H](CC(=O)O)C(=O)N[C@@H](CC(N)=O)C(=O)N[C@@H](CO)C(=O)N[C@@H](Cc1ccc(O)cc1)C(=O)N[C@@H](CCC(N)=O)C(=O)N[C@@H](CO)C(=O)N[C@@H](CS)C(=O)N[C@@H](CC(C)C)C(=O)N[C@@H](CC(C)C)C(=O)N[C@@H](CC(C)C)C(=O)N[C@@H](CCC(=O)O)C(=O)N[C@@H](CCC(N)=O)C(=O)N[C@@H](CC(=O)O)C(=O)O [Gc48] |  |  |  |  |  | 2 | > 100 | 4 | 2 | 4 | > 100 | 
CC[C@H](C)[C@H](NC(=O)[C@@H](NC(=O)[C@H](CC(C)C)NC(=O)[C@@H](NC(=O)[C@H](CC(N)=O)NC(=O)[C@H](CC(=O)O)NC(=O)[C@H](CCC(N)=O)NC(=O)[C@H](CCC(=O)O)NC(=O)[C@H](CC(C)C)NC(=O)[C@H](CC(C)C)NC(=O)[C@H](CC(C)C)NC(=O)[C@H](CS)NC(=O)[C@H](CO)NC(=O)[C@H](CCC(N)=O)NC(=O)[C@@H](N)Cc1ccc(O)cc1)[C@@H](C)O)[C@@H](C)O)C(=O)N[C@@H](C)C(=O)N[C@@H](CO)C(=O)N[C@H](C(=O)N[C@@H](CO)C(=O)N[C@@H](Cc1c[nH]cn1)C(=O)N[C@@H](CCSC)C(=O)N[C@@H](CCC(=O)O)C(=O)N[C@H](C(=O)N[C@@H](Cc1c[nH]cn1)C(=O)N[C@@H](CCCCN)C(=O)O)C(C)C)[C@@H](C)O [Gc49] | greater than 50% | 10 | 10 | 25 | 20 |  |  |  |  |  |  | 200
CC[C@H](C)[C@H](NC(=O)[C@H](CO)NC(=O)[C@@H](N)Cc1ccc(O)cc1)C(=O)N[C@@H](CCCCN)C(=O)N[C@@H](CC(C)C)C(=O)N[C@@H](CC(N)=O)C(=O)N[C@@H](CS)C(=O)N1CCC[C@H]1C(=O)N[C@@H](CC(C)C)C(=O)N[C@@H](C)C(=O)N[C@H](C(=O)N[C@@H](CCC(=O)O)C(=O)N[C@H](C(=O)N[C@H](C(=O)N[C@@H](CO)C(=O)N[C@H](C(=O)N[C@@H](CO)C(=O)N[C@H](C(=O)N[C@@H](CS)C(=O)N[C@@H](CO)C(=O)N[C@@H](C)C(=O)N[C@@H](CO)C(=O)N[C@@H](C)C(=O)N[C@@H](Cc1ccc(O)cc1)C(=O)N[C@H](C(=O)O)[C@@H](C)O)C(C)C)C(C)C)C(C)C)[C@@H](C)O)[C@@H](C)O [Gc56] | greater than 50% | 100 | 40 | 50 | 40 |  |  |  |  |  |  | 200
CC[C@H](C)[C@H](NC(=O)CNC(=O)[C@H](CCC(=O)O)NC(=O)[C@H](CCCCN)NC(=O)[C@H](Cc1ccc(O)cc1)NC(=O)[C@@H](NC(=O)[C@H](CCCNC(=N)N)NC(=O)[C@H](CS)NC(=O)[C@H](CC(C)C)NC(=O)[C@H](Cc1c[nH]c2ccccc12)NC(=O)[C@@H](NC(=O)[C@H](CO)NC(=O)[C@H](CS)NC(=O)[C@H](CCCCN)NC(=O)[C@H](CCCCN)NC(=O)[C@H](CC(=O)O)NC(=O)[C@H](Cc1c[nH]cn1)NC(=O)[C@H](CCC(N)=O)NC(=O)[C@H](CCC(=O)O)NC(=O)[C@@H](NC(=O)[C@@H](N)Cc1ccc(O)cc1)[C@@H](C)CC)[C@@H](C)O)C(C)C)C(=O)N[C@@H](CO)C(=O)N[C@H](C(=O)N[C@H](C(=O)N[C@@H](Cc1ccccc1)C(=O)O)[C@@H](C)CC)C(C)C [Gc59] |  |  |  |  |  | 4 | > 100 | 5 | 3.6 | 5.7 | > 100 | 
